Each structure is given as a SMILES string. Where a name gives a salt, the structure may show the parent alone.

Series [1] deals with ADP-induced human platelet aggregation. Put plainly: Inhibition of platelet aggregation in human PRP (ADP-induced). The format is cell-based. The following applies: 0.05 h, 3 min at 37° C., ADP 5-15 μM final concentration. How it is done: Human blood (150 ml) was collected from the ante-cubital vein of normal healthy volunteers (who were not on any medication for the past two weeks), into a siliconized glass bottle containing 25 ml of acid-citrate-dextrose (ACD) solution and 10 units of hirudin. The blood was immediately centrifuged at 200×g for 20 min at room temperature. Platelet-rich plasma (PRP) was separated and the platelet count read using a Beckman Coulter A^cT diff Counter. The tubes were centrifuged again at 2000×g for 10 min at room temperature, to get platelet-free plasma (PFP). The platelet count of PRP was adjusted to 3×10^8 platelets/ml by appropriate dilution with PFP. All in vitro experiments were conducted using PRP with adjusted number of platelets.
Inhibition of Platelet Aggregation in Human PRP (Born, G. V. R.; Cross, M. J., J. Physiol, 1963, 168, 175)
PRP was incubated with different concentrations of the test compound for 3 min at 37° C. Platelet aggregation was then induced by the addition of ADP (5-15 μM final concentration). Percent inhibition of platelet aggregation was then calculated by comparing test aggregation values with control values (Table 1).

Series [2] concerns ADP-induced guinea pig platelet aggregation. Put plainly: Guinea pig ex vivo studies: ADP-induced guinea pig platelet aggregation after oral dosing. The following applies: ex vivo in Guinea pigs, 3.1 mg/kg, p.o; for Last time point * (time in hours): time point after which the activity fell below 30%. How it is done:
Guinea Pig Ex vivo Studies:
Guinea pigs of either sex weighing between 500-800 g were orally fed the test compound. Blood was collected, from the carotid artery into ACD solution, at different time-points ranging from 1 to 24 h. PRP was separated and the platelet count adjusted to 3×10^8 platelets/ml using PFP. The effect of the test compound on ADP-induced guinea pig platelet aggregation was studied (Table 4).

For series [3], the system named is ADP-induced human platelet aggregation. As to the kind of experiment: Mouse ex vivo studies: plasma of orally dosed mice tested on ADP-induced human platelet aggregation. The following applies: 1 mg/kg, p.o; for Last time point * (time in hours): time point after which the activity fell below 30%; for Activity (%) at last time point / Activity (%) at peak: ex vivo in mice. Here is the method: Mouse ex vivo Studies: (Weller, T., Alig, L., et al J. Med. Chem., 1996, 39, 3139-3147)
Mice of either sex weighing between 25-35 g were orally fed the test compound. Blood was collected, from the abdominal aorta into ACD solution, at different time-points ranging from 15 min to 6 h. The blood samples were centrifuged at 2000×g for 10 min to get PFP. This plasma was separated and used as test sample to study its effect on ADP-induced human platelet aggregation (Table 3).

For `CCOC(=O)COc1ccc(C(=O)CN2Cc3cc(C(=N)N)ccc3C2=O)cc1` [Example 3, (4-{2-[5-Carbamimidoyl-1-oxo-1,3-dihydro-isoindol-2-yl]-acetyl}-phenoxy)-acetic acid ethyl ester], the melting point (commonly the temperature of the solid-liquid transition) was 185 to 187 °C. Also, the IC50 (commonly the concentration needed to halve the response being measured) in series [1] was 93 nM.
As to `CCOC(=O)COc1ccc(C(=O)CN2Cc3cc(C(=N)NO)ccc3C2=O)c(O)c1` [Example 42, (3-Hydroxy-4-{2-[5-(N-hydroxycarbamimidoyl)-1-oxo-1,3-dihydro-isoindol-2-yl]-acetyl}-phenoxy)-acetic acid ethyl ester], the melting point lay within 197 to 198 °C. In addition, in series [2], the “Activity (%) at last time point” value stood at 78%, the “Activity (%) at peak” value is on record as 100%, the “Peak activity (time in hours)” value came to 7 h and the “Last time point * (time in hours)” value came to 15 h. Further, in series [3], the “Peak activity (time in hours)” value turned out to be 0.75 h, the “Last time point * (time in hours)” value is 6 h, the “Activity (%) at last time point” value came out at 62% and the “Activity (%) at peak” value turned out to be 100%.
The compound `CCOC(=O)COc1ccc(C(=O)CN2Cc3cc(C(=N)N)ccc3C2=O)cc1OCC(=O)OCC` [Example 20, (4-{2-[5-Carbamimidoyl-1-oxo-1,3-dihydro-isoindol-2-yl]-acetyl}-2-ethoxycarbonylmethoxy-phenoxy)-acetic acid ethyl ester] showed an IC50 in series [1] of 50 nM.
Compound `CCOC(=O)COc1ccc(C(=O)CN2Cc3cc(C(=N)NO)ccc3C2=O)c(O)c1SCC` [Example 49, (2-Ethylsulfanyl-3-hydroxy-4-{2-[5-(N-hydroxycarbamimidoyl)-1-oxo-1,3-dihydro-isoindol-2-yl]-acetyl}-phenoxy)-acetic acid ethyl ester] showed a melting point of 182 to 183 °C. In series [3], the “Peak activity (time in hours)” value was found to be 0.75 h, the “Last time point * (time in hours)” value was 3 h, the “Activity (%) at last time point” value is given as 38% and the “Activity (%) at peak” value is given as 65%.
`CC(C)COC(=O)COc1ccc(C(=O)CN2Cc3cc(C(=N)N)ccc3C2=O)cc1OCC(=O)OCC(C)C` [Example 24, (4-{2-[5-Carbamimidoyl-1-oxo-1,3-dihydro-isoindol-2-yl]-acetyl}-2-isobutoxycarbonylmethoxy-phenoxy)acetic acid isobutyl ester] yielded an IC50 in series [1] of 6 nM.
As to `CCOC(=O)COc1ccc(C(=O)CN2Cc3cc(C(=N)N)ccc3C2=O)c(OCC)c1` [Example 76, (4-{2-[5-carbamimidoyl-1-oxo-1,3-dihydro-isoindol-2-yl]-acetyl}-3-ethoxy-phenoxy)-acetic acid ethyl ester], the melting point was in the range of 202 to 203 °C.
On to `CCOC(=O)COc1ccc(C(CN2Cc3cc(C(=N)NO)ccc3C2=O)=NO)cc1OCC(=O)OCC` [Example 23, (2-Ethoxycarbonylmethoxy-4-{2-[5-(N-hydroxycarbamimidoyl)-1-oxo-1,3-dihydro-isoindol-2-yl]-1-hydroxyimino-ethyl}-phenoxy)-acetic acid ethyl ester], for which the melting point fell in the range of 181 to 182 °C. In addition, in series [2], the “Activity (%) at last time point” value is reported as 48%, the “Activity (%) at peak” value came out at 100%, the “Peak activity (time in hours)” value came out at 7 h and the “Last time point * (time in hours)” value came out at 13 h. Further, in series [3], the “Peak activity (time in hours)” value was 1 h, the “Last time point * (time in hours)” value was 4 h, the “Activity (%) at last time point” value is on record as 35% and the “Activity (%) at peak” value was determined as 100%.
Take `CCCc1c(OCC(=O)OCC)ccc(C(=O)CN2Cc3cc(C(=N)NO)ccc3C2=O)c1O` [Example 58, (3-Hydroxy-4-{2-[5-(N-hydroxycarbamimidoyl)-1-oxo-1,3-dihydro-isoindol-2-yl]-acetyl}-2-propyl-phenoxy)-acetic acid ethyl ester]: the melting point was in the range of 211 to 212 °C.
Compound `CCOC(=O)COc1ccc(C(=O)CN2Cc3cc(-c4nc(=O)o[nH]4)ccc3C2=O)c(O)c1` [Example 78, (3-Hydroxy-4-{2-[1-oxo-5-(5-oxo-2,5-dihydro-[1,2,4]oxadiazol-3-yl)-1,3-dihydro-isoindol-2-yl]-acetyl}-phenoxy)-acetic acid ethyl ester] showed a melting point of 223 to 225 °C.
On the same count and under the same terms, under `CCN(CC)C(=O)COc1ccc(C(=O)CN2Cc3cc(C(=N)N)ccc3C2=O)cc1` (as salt: salt) [Example 25, 2-(4-{2-[5-Carbamimidoyl-1-oxo-1,3-dihydro-isoindol-2-yl]-acetyl}-phenoxy)-N,N-diethyl-acetamide] stands 194 to 195 °C; under `CCOC(=O)COc1ccc(C(=O)CN2Cc3cc(C(=N)NO)ccc3C2=O)c(O)c1Cl` (hydrate or solvate) [Example 54, (2-Chloro-3-hydroxy-4-{2-[5-(N-hydroxycarbamimidoyl)-1-oxo-1,3-dihydro-isoindol-2-yl]-acetyl}-phenoxy)-acetic acid ethyl ester], 214 to 215 °C.
The same measure, in the same setting: under `CCOC(=O)COC1CCN(C(=O)CN2Cc3cc(C(=N)NO)ccc3C2=O)CC1` [Example 68, (1-{2-[5-(N-Hydroxycarbamimidoyl)-1-oxo-1,3-dihydro-isoindol-2-yl]-acetyl}-piperidin-4-yloxy)-acetic acid ethyl ester] stands 204 to 206 °C; under `CCOC(=O)COc1ccc(C(=O)CN2Cc3cc(C(=N)NO)ccc3C2=O)cc1N(CC(=O)OCC)S(C)(=O)=O` [Example 40, (2-{Ethoxycarbonylmethyl-methanesulfonyl-amino}-4-{2-[5-(N-hydroxycarbamimidoyl)-1-oxo-1,3-dihydro-isoindol-2-yl]-acetyl}-phenoxy)-acetic acid ethyl ester], 165 to 167 °C; under `CCOC(=O)COc1cc(O)c(C(=O)CN2Cc3cc(C(=N)NO)ccc3C2=O)cc1C(C)C` [Example 51, (5-Hydroxy-4-{2-[5-(N-hydroxycarbamimidoyl)-1-oxo-1,3-dihydro-isoindol-2-yl]-acetyl}-2-isopropyl-phenoxy)-acetic acid ethyl ester], 207 to 209 °C.
`CCOC(=O)COc1cc(O)c(C(=O)CN2Cc3cc(C(=N)NO)ccc3C2=O)c(O)c1` [Example 63, (3,5-Dihydroxy-4-{2-[5-(N-hydroxycarbamimidoyl)-1-oxo-1,3-dihydro-isoindol-2-yl]-acetyl}-phenoxy)-acetic acid ethyl ester] came in with a melting point of 229 to 230 °C.
Same read-out and setting: under `CCOC(=O)COc1ccc(C(=O)CN2Cc3cc(-c4noc(C)n4)ccc3C2=O)c(OC(C)=O)c1` [Example 80, (3-Acetoxy-4-{2-[5-(5-methyl-[1,2,4]oxadiazol-3-yl)-1-oxo-1,3-dihydro-isoindol-2-yl]acetyl}-phenoxy)-acetic acid ethyl ester] stands 162 to 164 °C.
On the same count and under the same terms, under `CCOC(=O)COc1cc(O)c(C(=O)CN2Cc3cc(C(=N)NO)ccc3C2=O)cc1Cl` (hydrate or solvate) [Example 53, (2-Chloro-5-hydroxy-4-{2-[5-(N-hydroxycarbamimidoyl)-1-oxo-1,3-dihydro-isoindol-2-yl]-acetyl}-phenoxy)-acetic acid ethyl ester] stands 227 to 228 °C; under `CC(C)COC(=O)COc1ccc(C(=O)CN2Cc3cc(C(=N)NC(=O)OCC(C)C)ccc3C2=O)cc1` (hydrate or solvate) [Example 12, (4-{2-[5-(Imino-isobutoxycarbonylamino-methyl)-1-oxo-1,3-dihydro-isoindol-2-yl]-acetyl}-phenoxy)-acetic acid isobutyl ester], 140 to 141 °C; under `N=C(N)c1ccc2c(c1)CN(CC(=O)c1ccc(OCC(=O)O)cc1O)C2=O` (as salt: trifluoroacetate) [Example 44, (4-{2-[5-Carbamimidoyl-1-oxo-1,3-dihydro-isoindol-2-yl]-acetyl}-3-hydroxy-phenoxy)-acetic acid], 262 °C (dec.).
The same measure, in the same setting: under `CCOC(=O)COc1cc(O)c(C(=O)CN2Cc3cc(C(=N)NO)ccc3C2=O)cc1CC` [Example 50, (2-Ethyl-5-hydroxy-4-{2-[5-(N-hydroxycarbamimidoyl)-1-oxo-1,3-dihydro-isoindol-2-yl]-acetyl}-phenoxy)-acetic acid ethyl ester] stands 218 to 219 °C.

(Values after patent US7964628B2, “Fibrinogen receptor antagonists and their use” (Piramal Life Sciences Limited, priority 2003, dated 2011).)
